Molecules are shown by their SMILES.

In the assay the target is T1, P2X7 (UniProt Q99572).
T1 sequence (Q99572 1-595): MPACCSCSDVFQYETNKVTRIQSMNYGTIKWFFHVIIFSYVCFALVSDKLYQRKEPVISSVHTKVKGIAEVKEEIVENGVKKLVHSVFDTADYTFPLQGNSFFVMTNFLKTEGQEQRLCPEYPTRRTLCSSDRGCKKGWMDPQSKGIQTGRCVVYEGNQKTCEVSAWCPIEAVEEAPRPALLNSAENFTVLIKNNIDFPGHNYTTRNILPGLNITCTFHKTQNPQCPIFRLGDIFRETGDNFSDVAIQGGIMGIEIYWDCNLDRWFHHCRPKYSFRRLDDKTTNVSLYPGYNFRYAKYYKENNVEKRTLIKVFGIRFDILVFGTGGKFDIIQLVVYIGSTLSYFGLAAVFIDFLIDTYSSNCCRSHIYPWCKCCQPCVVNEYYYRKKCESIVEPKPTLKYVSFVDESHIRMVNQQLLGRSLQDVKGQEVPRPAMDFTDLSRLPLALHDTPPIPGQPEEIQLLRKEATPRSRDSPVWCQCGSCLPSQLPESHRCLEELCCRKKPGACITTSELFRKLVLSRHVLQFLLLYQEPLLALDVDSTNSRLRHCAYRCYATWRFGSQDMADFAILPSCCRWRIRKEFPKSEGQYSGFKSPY
The assay is described as follows: pIC50 values for P2X7 (Table 1). In kind it is cell-based. On the procedure:
Intracellular Calcium Flux (FLIPR) Assay
Compound and Reagent Preparation
Stock solutions of compounds were prepared from powders as a 10 mM DMSO stock solution. These solutions were stored at RT during the two week period of these experiments to prevent freeze-thaw of the DMSO stocks. The DMSO stocks were added to the appropriate assay buffer at a concentration of 10 μM, and then diluted serially to the final concentrations that were tested. […] The aqueous solutions of compounds as well as ATP (Sigma A7699) and BzATP (Sigma B6396) were prepared fresh for each day of experiment.
1321N1 cells stably expressing the full length human P2X7 gene (1321N1-hP2X7) and HEK293 cells stably expressing the full length rat P2X7 gene (HEK293-rP2X7) were obtained from the Roche Cell Culture Facility. 1321N1-hP2X7 cells were grown in Dulbecco's Modified Eagle's Medium (DMEM) high glucose supplemented with 10% FBS and 250 μg/mL G418. HEK293-rP2X7 cells were grown in DMEM/F-12 supplemented with 10% FBS, 1 mM CaCl2, 2 mM MgCl2, 2 mM L-Glutamine and 500 μg/ml G418. Cells were split such that they never became >70% confluent.
Intracellular Calcium Flux (FLIPR)
On the day prior to the experiment, 1321N1-hP2X7 or HEK293-rP2X7 cells were released into suspension with calcium-free PBS+Versene and washed by centrifugation with calcium-free PBS to remove the Versene.
On the day of the experiment, plates were washed with FLIPR buffer (calcium- and magnesium-free Hank's Balanced Salt Solution (HBSS) supplemented with 10 mM Hepes, 2.5 mM probenecid and 2 mM calcium chloride) using a BIO-TEK 96 channel plate washer and incubated with […] fluo-3 dye at 37° C. for one hr. The dye was then removed by plate washing and the cells were allowed to equilibrate for 20 min at room temperature with antagonist or vehicle (FLIPR buffer). Agonist (100 μM BzATP final concentration for hP2X7; 5 μM BzATP final concentration or rP2X7) was added online with the FLIPR and fluorescence measurements made at 1 sec intervals for 60 sec followed by 3 sec intervals for a further 4 min (5 min total). A final addition of 5 μM ionomycin was made and the maximal BzATP-evoked fluorescence normalized to the maximal ionomycin-evoked fluorescence.
Compound `COc1ccc(NC(=O)N2C=CC(=O)C[C@H]2c2ccc(F)cc2)cc1OC` [Compound 34, (S)-2-(4-Fluoro-phenyl)-4-oxo-3,4-dihydro-2H-pyridine-1-carboxylic acid (3,4-dimethoxy-phenyl)-amide] had a pIC50 of 7.2425.

The compound `COC(=O)c1cc(NC(=O)N2C=CC(=O)C[C@H]2c2ccc(F)cc2)c(Br)cc1Cl` [Compound 27, 4-Bromo-2-chloro-5-{[(S)-2-(4-fluoro-phenyl)-4-oxo-3,4-dihydro-2H-pyridine-1-carbonyl]-amino}-benzoic acid methyl ester] had a pIC50 of 7.26.

For `C[S@+]([O-])c1cc(NC(=O)N2C=CC(=O)C[C@H]2c2ccc(F)cc2)c(Br)cc1Cl` [Compound 17, (S)-2-(4-Fluoro-phenyl)-4-oxo-3,4-dihydro-2H-pyridine-1-carboxylic acid [2-bromo-4-chloro-5-((S)-methanesulfinyl)-phenyl]-amide], the pIC50 is 5.86.

`COCCN(C)Cc1cc(NC(=O)N2C=CC(=O)C[C@H]2c2ccc(F)cc2)c(C)cc1Cl` [Compound 121, (S)-2-(4-Fluoro-phenyl)-4-oxo-3,4-dihydro-2H-pyridine-1-carboxylic acid (4-chloro-5-{[(2-methoxy-ethyl)-methyl-amino]-methyl}-2-methyl-phenyl)-amide] returned a pIC50 of 6.43.

With `COc1cc(NC(=O)N2C=CC(=O)C[C@H]2c2ccc(F)cc2)ccc1F` [Compound 76, (S)-2-(4-Fluoro-phenyl)-4-oxo-3,4-dihydro-2H-pyridine-1-carboxylic acid (4-fluoro-3-methoxy-phenyl)-amide], the pIC50 is reported as 6.76.

As for `Cc1cc2ccn(C)c2cc1NC(=O)N1C=CC(=O)C[C@H]1c1ccc(F)cc1` [Compound 140, (S)-2-(4-Fluoro-phenyl)-4-oxo-3,4-dihydro-2H-pyridine-1-carboxylic acid (1,5-dimethyl-1H-indol-6-yl)-amide], the pIC50 is on record as 8.565.

`COc1ccc(NC(=O)N2C=CC(=O)C[C@H]2c2cccc(F)c2)cc1OC` [Compound 88, (S)-2-(3-Fluoro-phenyl)-4-oxo-3,4-dihydro-2H-pyridine-1-carboxylic acid (3,4-dimethoxy-phenyl)-amide] displayed a pIC50 of 6.32.

`Cc1cc(F)c(NC(=O)N2C=CC(=O)C[C@H]2c2ccc(F)cc2)cc1OCCO` [Compound 59, (S)-2-(4-Fluoro-phenyl)-4-oxo-3,4-dihydro-2H-pyridine-1-carboxylic acid [2-fluoro-5-(2-hydroxy-ethoxy)-4-methyl-phenyl]-amide]: the pIC50 is given as 6.62.

In turn, `C[C@@H](O)c1cc(NC(=O)N2C=CC(=O)C[C@H]2c2ccc(F)cc2)c(Br)cc1Cl` [Compound 84, (S)-2-(4-Fluoro-phenyl)-4-oxo-3,4-dihydro-2H-pyridine-1-carboxylic acid [2-bromo-4-chloro-5-((R)-1-hydroxy-ethyl)-phenyl]-amide] had a pIC50 of 6.67. The pIC50 values of the last two compounds are within 0.2 log units of each other.

`COc1cc(NC(=O)N2C=CC(=O)C[C@@H]2c2cc(F)cc(F)c2)c(Br)cc1C` [Compound 79, (R)-2-(3,5-Difluoro-phenyl)-4-oxo-3,4-dihydro-2H-pyridine-1-carboxylic acid (2-bromo-5-methoxy-4-methyl-phenyl)-amide] gave a pIC50 of 5.475.

Turning to `Cc1c2ccc(NC(=O)N3C=CC(=O)C[C@H]3c3ccc(F)cc3)cc2nn1C` [Compound 146, (S)-2-(4-Fluoro-phenyl)-4-oxo-3,4-dihydro-2H-pyridine-1-carboxylic acid (2,3-dimethyl-2H-indazol-6-yl)-amide], the pIC50 came to 5.615.

`COC(=O)c1cc(Br)c(NC(=O)N2C=CC(=O)C[C@H]2c2cccc(F)c2)cc1OC` [Compound 39, 5-Bromo-4-{[(S)-2-(3-fluoro-phenyl)-4-oxo-3,4-dihydro-2H-pyridine-1-carbonyl]-amino}-2-methoxy-benzoic acid methyl ester] showed a pIC50 of 7.06.

As for `Cc1ccc(S(=O)(=O)n2nc(C)c3cc(Br)c(NC(=O)N4C=CC(=O)C[C@H]4c4ccc(F)cc4)cc32)cc1` [Compound 23, (S)-2-(4-Fluoro-phenyl)-4-oxo-3,4-dihydro-2H-pyridine-1-carboxylic acid [5-bromo-3-methyl-1-(toluene-4-sulfonyl)-1H-indazol-6-yl]-amide], the pIC50 turned out to be 5.245.

With `Cc1cc(Cl)c(CO)cc1NC(=O)N1C=CC(=O)C[C@H]1c1ccc(F)cc1` [Compound 118, (S)-2-(4-Fluoro-phenyl)-4-oxo-3,4-dihydro-2H-pyridine-1-carboxylic acid (4-chloro-5-hydroxymethyl-2-methyl-phenyl)-amide], the pIC50 came to 7.735.

`Cc1cc2cccnc2cc1NC(=O)N1C=CC(=O)C[C@H]1c1ccc(F)cc1` [Compound 102, (S)-2-(4-Fluoro-phenyl)-4-oxo-3,4-dihydro-2H-pyridine-1-carboxylic acid (6-methyl-quinolin-7-yl)-amide] had a pIC50 of 6.56.

In turn, `Cc1c(CC(=O)OC(C)(C)C)cccc1NC(=O)N1C=CC(=O)C[C@H]1c1ccc(F)cc1` [Compound 144, (3-{[(S)-2-(4-Fluoro-phenyl)-4-oxo-3,4-dihydro-2H-pyridine-1-carbonyl]amino}-2-methyl-phenyl)-acetic acid tert-butyl ester] returned a pIC50 of 6.215.

`Cc1cc(Cl)c(OCCO)cc1NC(=O)N1C=CC(=O)C[C@H]1c1ccc(F)cc1` [Compound 92, (S)-2-(4-Fluoro-phenyl)-4-oxo-3,4-dihydro-2H-pyridine-1-carboxylic acid [4-chloro-5-(2-hydroxy-ethoxy)-2-methyl-phenyl]-amide] came in with a pIC50 of 8.023.

`Cc1cc(Cl)c(OCCCO)cc1NC(=O)N1C=CC(=O)C[C@H]1c1ccc(F)cc1` [Compound 114, (S)-2-(4-Fluoro-phenyl)-4-oxo-3,4-dihydro-2H-pyridine-1-carboxylic acid [4-chloro-5-(3-hydroxy-propoxy)-2-methyl-phenyl]-amide]: the pIC50 is on record as 7.74.

`O=C1C=CN(C(=O)Nc2cccc3c2CCO3)[C@H](c2ccc(F)cc2)C1` [Compound 152, (S)-2-(4-Fluoro-phenyl)-4-oxo-3,4-dihydro-2H-pyridine-1-carboxylic acid (2,3-dihydro-benzofuran-4-yl)-amide] showed a pIC50 of 7.355.

Consider `O=C1C=CN(C(=O)Nc2cc(F)c(Cl)cc2Br)[C@H](c2ccc(F)cc2)C1` [Compound 18, (S)-2-(4-Fluoro-phenyl)-4-oxo-3,4-dihydro-2H-pyridine-1-carboxylic acid (2-bromo-4-chloro-5-fluoro-phenyl)-amide], for which the pIC50 turned out to be 6.286.

For the compound `COc1cccc(NC(=O)N2C=CC(=O)CC2c2ccc(F)cc2)c1OC` (centres unmarked) [Compound 110, 2-(4-Fluoro-phenyl)-4-oxo-3,4-dihydro-2H-pyridine-1-carboxylic acid (2,3-dimethoxy-phenyl)-amide], the pIC50 is 6.89.

The compound `COc1cccc(NC(=O)N2C=CC(=O)CC2c2ccc(F)cc2)c1C` (centres unmarked) [Compound 109, 2-(4-Fluoro-phenyl)-4-oxo-3,4-dihydro-2H-pyridine-1-carboxylic acid (3-methoxy-2-methyl-phenyl)-amide] yielded a pIC50 of 8.433.

With `COc1cc(NC(=O)N2C=CC(=O)C[C@H]2c2ccc(F)cc2)c(Br)cc1F` [Compound 6, (S)-2-(4-Fluoro-phenyl)-4-oxo-3,4-dihydro-2H-pyridine-1-carboxylic acid (2-bromo-4-fluoro-5-methoxy-phenyl)-amide], the pIC50 is 7.5.

In general, pIC50 refers to the negative decadic logarithm of the IC50, by convention in mol/L. A low value points to a high IC50.

The values above are taken from patent publication US8153809B2, “Dihydropyridone ureas as P2X7 modulators” (Roche Palo Alto LLC, priority 2008, dated 2012).
